The test system of one assay is amino acid dehydrogenase. Put plainly: Substrate specificity of the purified amino acid dehydrogenase (reductive amination of 2-oxo acids). It counts as biochemical, Rhodococcus qingshengii strain KNK2108. To be noted: activity for phenylpyruvic acid = 100%; 30° C., pH 9.0; naphthylpyruvic and indolepyruvic acid by HPLC of the product formed in 30 minutes. How it is done: In the embodiments, the amino acid dehydrogenase activity of the polypeptide can be measured, for example, based on the rate of decline in the absorbance at a wavelength of 340 nm when 1.2 mL of 0.5 M NH3/NH4Cl buffer (pH 9.0), 0.2 mL of 0.1 M sodium carbonate buffer (pH 9.0) containing 3 mM NADH coenzyme, and 0.1 mL of an appropriately diluted enzyme solution are added to 1.5 mL of 0.1 M sodium carbonate buffer (pH 9.0) containing 10 mM phenylpyruvic acid as substrate and a reaction is run for 1 minute at 30° C. In the embodiments, the amino acid dehydrogenase activity was measured using this method unless indicated otherwise.
The activity of the amino acid dehydrogenase was measured based on the rate of decline in the absorbance at a wavelength of 340 nm when 1.2 mL of 0.5 M NH3/NH4Cl buffer (pH 9.0), 0.2 mL of 0.1 M sodium carbonate buffer (pH 9.0) that contained 3 mM NADH coenzyme, and 0.1 mL of the appropriately diluted enzyme solution were added to 1.5 mL of 0.1 M sodium carbonate buffer (pH 9.0) that contained 10 mM phenylpyruvic acid substrate and a reaction was carried out for 1 minute at 30° C. 1 unit is defined here as the quantity of enzyme that consumed 1 μmol NADH in 1 minute. The protein was quantified by the Bradford method using BSA as the reference protein.
The substrate specificity of the purified amino acid dehydrogenase was investigated. The enzyme activity was measured by using each substrate in place of the phenylpyruvic acid substrate in the procedure previously described for measuring the enzyme activity. In the case of the enzyme activity for naphthylpyruvic acid, 100 μL of the appropriately diluted enzyme solution was added to 100 μL of 0.1 M sodium carbonate buffer (pH 9.0) that contained 1.0 mg naphthylpyruvic acid, 12.3 mg ammonium sulfate, and 6.1 mg NADH and the increment in the 2-naphthylalanine produced in 30 minutes at 30° C. was determined by quantitation by HPLC. The HPLC analysis was run using the following: column: COSMOSIL 5C18-ARII (4.6 mm×250 mm, Nacalai Tesque, Inc.), eluent: 10 mM potassium phosphate buffer (pH 2.0)/acetonitrile=5/1, flow rate: 1.0 mL/min, column temperature: 40° C., detection: 210 nm. Here, 1 unit is defined as the quantity of enzyme that produces 1 μmol 2-naphthylalanine in 1 minute. In the case of the enzyme activity for indolepyruvic acid, 100 μL of the appropriately diluted enzyme solution was added to 100 μL of 0.1 M sodium carbonate buffer (pH 9.0) that contained 2.0 mg indolepyruvic acid, 26.0 mg ammonium sulfate, and 7.6 mg NADH and the increment in the L-tryptophan produced in 30 minutes at 30° C. was determined by quantitation by HPLC. The HPLC analysis was run using the following: column: CROWNPAK CR—(4.6 mm×150 mm, Daicel Chemical Industries, Ltd.), eluent: aqueous HClO4 (pH 2.0), flow rate: 1.0 mL/min, column temperature: 30° C., detection: 210 nm. Here, 1 unit is defined as the quantity of enzyme that produces 1 μmol L-tryptophan in 1 minute.

The test system of assay [1] is Rhodococcus maris-derived phenylalanine dehydrogenase. As to conditions: cited from earlier work.
The target in assay [2] is Rhodococcus sp.-derived phenylalanine dehydrogenase (Rhodococcus sp, UniProt Q59771). As to conditions: cited from earlier work.
Chain of Rhodococcus sp.-derived phenylalanine dehydrogenase (Q59771 whole entry): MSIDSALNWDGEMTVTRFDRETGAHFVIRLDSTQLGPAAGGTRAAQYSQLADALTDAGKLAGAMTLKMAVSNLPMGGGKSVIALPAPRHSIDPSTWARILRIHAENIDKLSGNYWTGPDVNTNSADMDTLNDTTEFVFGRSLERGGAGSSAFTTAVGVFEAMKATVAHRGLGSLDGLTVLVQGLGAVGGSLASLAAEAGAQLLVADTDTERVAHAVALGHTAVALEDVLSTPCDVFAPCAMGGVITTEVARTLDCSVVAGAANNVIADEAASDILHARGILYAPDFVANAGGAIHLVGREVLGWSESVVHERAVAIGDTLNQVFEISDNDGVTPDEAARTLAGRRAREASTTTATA
Assay [3] deals with Thermoactinomyces intermedius-derived phenylalanine dehydrogenase (Thermoactinomyces intermedius, UniProt P22823). As to conditions: cited from earlier work.
Chain of Thermoactinomyces intermedius-derived phenylalanine dehydrogenase (P22823 whole entry): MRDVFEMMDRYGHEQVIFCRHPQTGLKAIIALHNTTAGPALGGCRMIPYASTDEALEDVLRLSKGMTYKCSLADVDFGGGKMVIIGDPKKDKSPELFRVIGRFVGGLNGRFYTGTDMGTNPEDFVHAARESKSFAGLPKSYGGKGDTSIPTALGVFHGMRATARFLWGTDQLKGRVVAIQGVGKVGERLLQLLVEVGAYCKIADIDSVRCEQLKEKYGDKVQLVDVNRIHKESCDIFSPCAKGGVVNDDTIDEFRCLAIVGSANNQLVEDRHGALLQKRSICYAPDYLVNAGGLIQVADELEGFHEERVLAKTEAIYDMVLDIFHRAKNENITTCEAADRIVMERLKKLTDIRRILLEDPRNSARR
Assay [4] has as its system Microbacterium sp.-derived phenylalanine dehydrogenase. As to conditions: cited from earlier work.
The target of assay [5] is Bacillus sphaericus-derived phenylalanine dehydrogenase (Lysinibacillus sphaericus, UniProt P23307). As to conditions: cited from earlier work.
Chain of Bacillus sphaericus-derived phenylalanine dehydrogenase (P23307 whole entry): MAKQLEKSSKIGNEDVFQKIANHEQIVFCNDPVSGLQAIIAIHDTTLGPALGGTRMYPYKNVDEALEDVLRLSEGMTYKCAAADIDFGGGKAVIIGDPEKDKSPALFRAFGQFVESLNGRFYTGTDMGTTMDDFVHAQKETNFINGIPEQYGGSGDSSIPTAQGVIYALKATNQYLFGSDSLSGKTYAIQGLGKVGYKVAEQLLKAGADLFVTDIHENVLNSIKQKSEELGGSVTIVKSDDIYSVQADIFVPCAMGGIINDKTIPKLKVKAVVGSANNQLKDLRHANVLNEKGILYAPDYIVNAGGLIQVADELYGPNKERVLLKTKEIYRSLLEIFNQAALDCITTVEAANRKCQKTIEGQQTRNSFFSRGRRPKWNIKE
Assay [6] concerns the target T1, Sporosarcina ureae-derived phenylalanine dehydrogenase (Sporosarcina ureae, UniProt P97014).
T1 sequence (P97014 1-379): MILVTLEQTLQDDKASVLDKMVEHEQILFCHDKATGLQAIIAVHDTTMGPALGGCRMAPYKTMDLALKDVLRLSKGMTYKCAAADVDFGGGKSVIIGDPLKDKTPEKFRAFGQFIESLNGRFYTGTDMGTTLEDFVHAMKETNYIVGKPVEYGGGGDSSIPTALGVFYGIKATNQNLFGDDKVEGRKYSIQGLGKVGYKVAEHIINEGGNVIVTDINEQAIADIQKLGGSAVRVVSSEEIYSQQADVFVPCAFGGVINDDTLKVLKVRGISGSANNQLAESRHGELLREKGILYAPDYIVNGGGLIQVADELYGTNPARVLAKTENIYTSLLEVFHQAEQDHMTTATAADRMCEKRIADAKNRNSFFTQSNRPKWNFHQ
To be noted: cited from earlier work.

For `CSCCC(=O)C(=O)O` [2-Oxo-4-(methylthio)butanoic acid], the “Relative activity (%)” value in the assay with amino acid dehydrogenase is reported as 34.6%. Also, the “enzymatic activity taking the enzymatic activity for phenylpyruvic acid to be 100” value in assay [1] was 9.
On to `O=C(O)C(=O)Cc1ccccc1` [Phenylpyruvic acid], for which the “Relative activity (%)” value in the assay on amino acid dehydrogenase is reported as 100.0%.
As to `O=C(O)C(=O)Cc1ccc(O)cc1` [4-Hydroxyphenylpyruvic acid], the “enzymatic activity taking the enzymatic activity for phenylpyruvic acid to be 100” value in assay [2] is recorded as 5; in assay [3], 0. In addition, the “Relative activity (%)” value with amino acid dehydrogenase worked out at 96.3%.
As for `O=C(O)C(=O)CCc1ccccc1` [Homophenylpyruvic acid], in the assay with amino acid dehydrogenase, the “Relative activity (%)” value came out at 19.1%. Besides, the results for the “enzymatic activity taking the enzymatic activity for phenylpyruvic acid to be 100” value in assay [4] and in assay [5] were 0.1 and 3.4, respectively.
As to Naphthylpyruvic acid, the “Relative activity (%)” value in the assay on amino acid dehydrogenase is 38.8%. Further, in assay [5], the “enzymatic activity taking the enzymatic activity for phenylpyruvic acid to be 100” value is on record as 0.46.
As for `CC(C)CC(=O)C(=O)O` [2-Oxo-4-methylvaleric acid], in the assay with amino acid dehydrogenase, the “Relative activity (%)” value came to 3.5%.
Regarding `O=C(O)C(=O)Cc1c[nH]c2ccccc12` [Indolepyruvic acid], the “enzymatic activity taking the enzymatic activity for phenylpyruvic acid to be 100” value is given as 0.73 in assay [6], 3 in assay [2], 5 in assay [1] and 0.39 in assay [5]. In addition, in the assay with amino acid dehydrogenase, the “Relative activity (%)” value is on record as 19.7%.

The values above are taken from patent US9267116B2, “Amino acid dehydrogenase, and process for producing L-amino acid, 2-oxo acid or D-amino acid” (KANEKA CORPORATION, priority 2008, dated 2016).
